Measured values from patent US20070059382A1 (Board of Regents, Univ. and Comm. College System of …, priority 2005, published 2007).
Where “and” joins values, the source holds several entries; their conditions need not be identical. Equal values may be shown once. Entries after “also recorded” stand apart in the source; their conditions may differ. Read-outs that look alike come from different tables or passages of the source.

Legend:
[1] = in vivo; cited from earlier work
MCF-7 [2] = assay: Cell attachment (reattachment after trypsin harvest)
ZR-75-1 [3] = assay: as above
DU-145 = details: cited from earlier work
ZR-75-1 [4] = tested on: ZR-75-1
DU-145 cells = details: cited from earlier work
[5] = tested on: cyclins A-E and MAPK proteins; details: cited from earlier work
LNCaP = details: cited from earlier work
MCF-7 [6] = details: 1 mM
[7] = humans, chronic (about 1 g of boric acid); cited from earlier work
[8] = tested on: non-tumorigenic prostate cell lines; details: cited from earlier work
[9] = in vivo; cited from earlier work; remark: listed apart in the source
PC-3 = details: cited from earlier work
HeLa cells = assay: Growth of HeLa cells (express the NaBC1 transporter); type: cell-based; details: 1 mM
LNCaP tumor = details: nude mice, 1.7 and 9.0 mgB/Kg/day; cited from earlier work
ZR-75-1 [10] = assay: Detachment of growing cells (attached and floating cells); type: cell-based, human; details: seven days, 0.5 to 10 mM boric acid
From the text: We quantified the attached and floating cells. The data is shown below in FIG. 7.

[11] = treated three days, then boric acid removed

Structure (SMILES): [B] [boron]
- Tolerable Upper Intake Level (UL) [1]: 20 mg/day

Structure (SMILES): [Cl][Mn][Cl] [MnCl2, reference compound]
- effect on cell attachment (MCF-7 [2]): stimulates attachment
- percentage of cells that had reattached (MCF-7 [2]): 53.9 ± 12.3% and 69.4 ± 2.9% and 74.9 ± 3.6% and 81.5 ± 9.9%
- effect on cell attachment (ZR-75-1 [3]): stimulates attachment
- percentage of cells that had reattached (ZR-75-1 [3]): 42.6 ± 12.0% and 67.3 ± 12.0% and 70.2 ± 1.4% and 77.8 ± 13.6%

Structure (SMILES): OB(O)O [boric acid]
- growth inhibition (DU-145): inhibits the growth
- growth inhibition (DU-145; listed as BA): sensitive
- growth inhibition (ZR-75-1 [4]; 1 mM): sensitive; also recorded: growth inhibition; also recorded: very sensitive
- time to resume normal growth rate after boric acid removal (ZR-75-1 [4]; [11]): about three
- growth inhibition (SK-BR-3; 1 mM): growth inhibition
- time to resume normal growth rate after boric acid removal (SK-BR-3; [11]): about three
- adhesion, migration and invasion potential (DU-145 cells): reduced
- change in cyclins A-E and MAPK proteins [5]: dose-dependent reduction
- growth inhibition (LNCaP): inhibits the growth
- growth inhibition (LNCaP; listed as BA): much less sensitive
- effect on cell attachment (MCF-7 [2]; MCF-7, 1 mM (Experiments 3, 4)): did not
- percentage of cells that had reattached (MCF-7 [2]; MCF-7, 30 min, 1 mM each compound): 53.5 ± 3.0%
- percentage of cells that had reattached (MCF-7 [2]; MCF-7, 60 min, 1 mM each compound): 92.6 ± 9.1%
- percentage of cells that had reattached (MCF-7 [2]; MCF-7, 90 min, 1 mM each compound): 105.7 ± 6.8%
- percentage of cells that had reattached (MCF-7 [2]; MCF-7, 120 min, 1 mM each compound): 97.5 ± 4.1%
- growth inhibition (MCF-7 [6]): not growth inhibited; also recorded: no growth inhibition; also recorded: much less sensitive
- chronic intake with no adverse effects [7]: 2.5 mg/kg/day
- growth inhibition [8]: not
- fraction excreted in the urine [9]: about 85%
- half-life [9]: about 21 hrs
- time to excretion in the urine after ingestion [9]: ≤ 24 h
- growth inhibition (PC-3): inhibits the growth
- growth inhibition (PC-3; listed as BA): much less sensitive
- growth inhibition (HeLa cells): very little inhibition
- inhibition of LNCaP tumor growth (LNCaP tumor): about 30%
- cell detachment / floating cells (ZR-75-1 [10]): causing breast cancer cells to detach and undergo apoptosis; also recorded: cells were seen floating in the media
- effect on cell attachment (ZR-75-1 [3]; ZR-75-1, 1 mM (Experiments 1, 2)): inhibit the attachment; also recorded: inhibited their reattachment
- effect on cell attachment (ZR-75-1 [3]; ZR-75-1, 1 mM (Experiments 1, 2), listed as BA): did not
- percentage of cells that had reattached (ZR-75-1 [3]; ZR-75-1, 30 min, 1 mM each compound): 24.5 ± 5.2%
- percentage of cells that had reattached (ZR-75-1 [3]; ZR-75-1, 60 min, 1 mM each compound): 74.1 ± 26.1%
- percentage of cells that had reattached (ZR-75-1 [3]; ZR-75-1, 90 min, 1 mM each compound): 98.2 ± 34.0%
- percentage of cells that had reattached (ZR-75-1 [3]; ZR-75-1, 120 min, 1 mM each compound): 104.0 ± 16.1%
